Laboratory results reported in US20230364118A1, “RIBITOL TREATMENT” (priority 2020, published 2023).
Several values for one entry are separate records, joined by “and”; a condition that tells them apart may be missing. Identical values can stand only once. Like-named read-outs stand apart in the source and are kept apart here.

Legend:
P448L FKRP mutant mice = assay: Efficacy in P448L FKRP mutant mouse model; format: in vivo
Protocol: Glycosylation levels increased from undetectable levels to up to 26% in skeletal muscles with a reduction in disease specific pathology such as central nucleated fibers (diaphragm) and fibrosis (heart).
Ribitol was studied in a P448L FKRP mutant mouse model to assess drug-mediated improvements in matriglycan expression and muscle performance. In one study the mutant mice were treated with doses of 10 g/kg daily by oral gavage or 2.5 g/kg ribitol IV injection weekly for one month.
In a long-term efficacy study the FKRP P448L mutant mice were dosed up to one year by oral gavage. Matriglycan expression was increased as measured by immunohistochemistry and Western Blot analysis after six months of dosing at 2 g/kg, 5 g/kg, and 10 g/kg daily (FIG. 3). […] Diaphragmatic performance was assessed using whole body plethysmography (FIGS. 5A-5F).

[1] = 28-day oral GLP toxicity study with 14-day recovery; conditions: minipig
Protocol: The purpose of this GLP study was to assess the potential toxicity, reversibility, persistence, or delayed effects of ribitol in minipigs following 28 days of BID oral gavage dosing with a 14 day recovery period. In addition, the plasma TK profile of ribitol was evaluated on Days 1 and 28. Four Bama minipigs/sex/group were administered 0 (vehicle control, purified water), 0.1, 0.3, or 1.0 g/kg/dose ribitol by oral gavage BID (0.2, 0.6, 2.0 g/kg/day; 6 hours apart) for 28 days. In addition, 2 minipigs/sex/group were treated for 28 days with either vehicle (water) or 1.0 g/kg/dose ribitol BID (2.0 g/kg/day) followed by 14-day treatment-free recovery period. In-life assessments included mortality, clinical signs including detailed clinical observations pre-test and once weekly during the dosing and recovery phase, body weight, food consumption, ophthalmology, electrocardiography, and clinical pathology (hematology, coagulation, serum chemistry, and urinalysis). Terminal endpoints included macroscopic pathology, organ weights and histopathology. Blood was taken for plasma TK on Days 1 and 28.

Single oral dose PK = format: in vivo, CD-1 mouse
Protocol: The PK of ribitol was studied in male and female CD-1 mice following two oral doses at 0.3 and 1.0 g/kg (FIG. 10). Blood samples were collected serially up to 24 hours post dose.

[2] = Single intravenous dose PK; format: in vivo, Bama minipig; conditions: for CLs: Bama minipigs
Protocol: The PK of ribitol was studied in 2 male and 2 female Bama minipigs following escalating IV doses levels using the same animals with a 48 hour washout period at 10 mg/kg (Day 1), 30 mg/kg (Day 3) and 100 mg/kg (Day 5). On each dosing day, blood samples were collected serially up to 24 hours post dose.

[3] = Plasma protein binding, rapid equilibrium dialysis; format: in vitro ADME
Protocol: Protein binding studies with ribitol were performed in vitro using plasma from CD-1 mouse, Sprague-Dawley rat, Gottingen minipig, and human at 75 μg/mL (0.49 mM) and 200 μg/mL (1.31 mM) using the rapid equilibrium dialysis method. The percent of ribitol bound to plasma was approximately similar between the two concentrations tested in all species.

[4] = Single intravenous dose PK; format: in vivo, CD-1 mouse; conditions: for CLs: CD-1 mice; for clearance: read-out: Systemic clearance (CLs)
Protocol: The PK of ribitol was studied in male and female CD-1 mice following three IV doses at 10, 30, and 100 mg/kg (n=3/dose/sex). Blood samples were collected serially up to 24 hours post dose.

[5] = CD-1, mouse, plasma, single PO 0.3 g/kg, female
[6] = CD-1, mouse, plasma, single PO 0.3 g/kg, male
[7] = CD-1, mouse, plasma, single PO 1.0 g/kg, female
[8] = CD-1, mouse, plasma, single PO 1.0 g/kg, male

SMILES: OC[C@@H](O)[C@@H](O)[C@@H](O)CO [ribitol, (2R,3s,4S)-Pentane-1,2,3,4,5-pentol]
- treadmill exhaustion running distance and running time (P448L FKRP mutant mice; 2, 5 g/kg/day, 5 g/kg/dose BID, 3.3 g/kg/dose TID): improvements
- creatine kinase activity (P448L FKRP mutant mice; 6 months): decreased with increasing doses
- increase in running time (P448L FKRP mutant mice; 6 months, 2 g/kg/day): 50-75%
- increase in treadmill distance (P448L FKRP mutant mice; 6 months, 2 g/kg/day): 50%
- efficacious dose (P448L FKRP mutant mice; FKRP mutant mouse models): 500 mg/kg
- glycosylation levels in skeletal muscles (P448L FKRP mutant mice; from undetectable levels): up to 26%
- muscle histology (P448L FKRP mutant mice; long-term oral dosing): decreases in fibrosis
- levels of ribitol, ribitol-5-phosphate, CDP-ribitol in heart and leg muscles versus untreated mice (P448L FKRP mutant mice; oral or intravenous): up to 4 times
- NOAEL at 28 days ([1]; both, Bama, in vivo, po): 2000 mg/kg/day
- NOAEL ([1]; 28 days oral, both sexes): 1 g/kg/dose BID and 1.0 g/kg/dose BID
- Tmax (Single oral dose PK; CD-1, mouse, plasma, oral, mice, stated for FOB timepoint selection, read-out: Tmax): ~60 min
- AUC(0-inf) (Single oral dose PK; [5]): 55900 ng·h/mL
- Cmax (Single oral dose PK; [5]): 55 µg/mL
- bioavailability (Single oral dose PK; CD-1, mouse, plasma, single PO 0.3 g/kg, female, read-out: % F): 30.9%
- half-life (Single oral dose PK; CD-1, mouse, plasma, single PO 0.3 g/kg, female, read-out: T1/2 (converted)): 78.6 min
- Tmax (Single oral dose PK; CD-1, mouse, plasma, single PO 0.3 g/kg, female, read-out: Tmax): 30 min
- AUC(0-inf) (Single oral dose PK; [6]): 41600 ng·h/mL
- Cmax (Single oral dose PK; [6]): 45.6 µg/mL
- bioavailability (Single oral dose PK; CD-1, mouse, plasma, single PO 0.3 g/kg, male, read-out: % F): 24.6%
- half-life (Single oral dose PK; CD-1, mouse, plasma, single PO 0.3 g/kg, male, read-out: T1/2 (converted)): 40.6 min
- Tmax (Single oral dose PK; CD-1, mouse, plasma, single PO 0.3 g/kg, male, read-out: Tmax): 30 min
- AUC(0-inf) (Single oral dose PK; [7]): 129000 ng·h/mL
- Cmax (Single oral dose PK; [7]): 124 µg/mL
- bioavailability (Single oral dose PK; CD-1, mouse, plasma, single PO 1.0 g/kg, female, read-out: % F): 22.1%
- half-life (Single oral dose PK; CD-1, mouse, plasma, single PO 1.0 g/kg, female, read-out: T1/2 (converted)): 70.2 min
- Tmax (Single oral dose PK; CD-1, mouse, plasma, single PO 1.0 g/kg, female, read-out: Tmax): 30 min
- AUC(0-inf) (Single oral dose PK; [8]): 173000 ng·h/mL
- Cmax (Single oral dose PK; [8]): 112 µg/mL
- bioavailability (Single oral dose PK; CD-1, mouse, plasma, single PO 1.0 g/kg, male, read-out: % F): 30.5%
- half-life (Single oral dose PK; CD-1, mouse, plasma, single PO 1.0 g/kg, male, read-out: T1/2 (converted)): 78.6 min
- Tmax (Single oral dose PK; CD-1, mouse, plasma, single PO 1.0 g/kg, male, read-out: Tmax): 30 min
- Tmax (Single oral dose PK; both sexes, CD-1, mouse, plasma, po, read-out: Tmax after oral administration): < 120 min
- bioavailability (Single oral dose PK; both sexes, CD-1, plasma, po, mouse, range over doses and sexes, read-out: oral bioavailability): 22.1 to 30.9%
- half-life (Single oral dose PK; both sexes, CD-1, plasma, po, mouse, range, read-out: T1/2 following the oral dose): 40.6 to 78.6 min
- AUC(0-inf) ([2]; Bama, minipig, plasma, IV 10 mg/kg, female): 17000 ng·h/mL
- half-life ([2]; Bama, minipig, plasma, IV 10 mg/kg, female, read-out: T1/2 (converted)): 33.4 min
- Vd ([2]; Bama, minipig, plasma, IV 10 mg/kg, female, read-out: Vss): 0.417 L/kg
- AUC(0-inf) ([2]; Bama, minipig, plasma, IV 10 mg/kg, male): 11200 ng·h/mL
- half-life ([2]; Bama, minipig, plasma, IV 10 mg/kg, male, read-out: T1/2 (converted)): 32.7 min
- Vd ([2]; Bama, minipig, plasma, IV 10 mg/kg, male, read-out: Vss): 0.603 L/kg
- AUC(0-inf) ([2]; Bama, minipig, plasma, IV 30 mg/kg, female): 57000 ng·h/mL
- half-life ([2]; Bama, minipig, plasma, IV 30 mg/kg, female, read-out: T1/2 (converted)): 44.9 min
- Vd ([2]; Bama, minipig, plasma, IV 30 mg/kg, female, read-out: Vss): 0.582 L/kg
- AUC(0-inf) ([2]; Bama, minipig, plasma, IV 30 mg/kg, male): 35800 ng·h/mL
- half-life ([2]; Bama, minipig, plasma, IV 30 mg/kg, male, read-out: T1/2 (converted)): 31.1 min
- Vd ([2]; Bama, minipig, plasma, IV 30 mg/kg, male, read-out: Vss): 0.5 L/kg
- AUC(0-inf) ([2]; Bama, minipig, plasma, IV 100 mg/kg, female): 210000 ng·h/mL
- half-life ([2]; Bama, minipig, plasma, IV 100 mg/kg, female, read-out: T1/2 (converted)): 59.6 min
- Vd ([2]; Bama, minipig, plasma, IV 100 mg/kg, female, read-out: Vss): 0.434 L/kg
- AUC(0-inf) ([2]; Bama, minipig, plasma, IV 100 mg/kg, male): 150000 ng·h/mL
- half-life ([2]; Bama, minipig, plasma, IV 100 mg/kg, male, read-out: T1/2 (converted)): 46.4 min
- Vd ([2]; Bama, minipig, plasma, IV 100 mg/kg, male, read-out: Vss): 0.449 L/kg
- CLs ([2]; IV 10 mg/kg, female): 10.1 mL/min/kg
- CLs ([2]; IV 10 mg/kg, male): 15.1 mL/min/kg
- half-life ([2]; both sexes, Bama, plasma, iv, minipig, range, read-out: T1/2 following the IV dose): 31.1 to 59.6 min
- clearance ([2]; both sexes, Bama, plasma, minipig, IV 10-100 mg/kg, range, read-out: Systemic clearance (CLs)): 7.95 to 15.1 mL/min/kg
- Vd ([2]; both sexes, Bama, plasma, minipig, IV, range, read-out: Volume of distribution at steady state (Vss)): 0.417 to 0.603 L/kg
- % Binding ([3]; 75 μg/mL (0.49 mM), CD-1 mouse plasma): 44.6 ± 1.3%
- % Binding ([3]; 75 μg/mL (0.49 mM), Gottingen minipig plasma): 44.1 ± 1.0%
- % Binding ([3]; 75 μg/mL (0.49 mM), Sprague-Dawley rat plasma): 43.3 ± 3.4%
- % Binding ([3]; 75 μg/mL (0.49 mM), human plasma): 36.5 ± 1.8%
- % Binding ([3]; 200 μg/mL (1.31 mM), CD-1 mouse plasma): 42.5 ± 0.3%
- % Binding ([3]; 200 μg/mL (1.31 mM), Gottingen minipig plasma): 38.6 ± 2.4%
- % Binding ([3]; 200 μg/mL (1.31 mM), Sprague-Dawley rat plasma): 40.3 ± 0.5%
- % Binding ([3]; 200 μg/mL (1.31 mM), human plasma): 34.6 ± 0.3%
- fraction unbound ([3]; human plasma, 0.49 and 1.31 mM, range): 0.635 to 0.654
- AUC(0-inf) ([4]; CD-1, mouse, plasma, IV 10 mg/kg, female): 13300 ng·h/mL
- Vd ([4]; CD-1, mouse, plasma, IV 10 mg/kg, female, read-out: Vss): 4.27 L/kg
- AUC(0-inf) ([4]; CD-1, mouse, plasma, IV 10 mg/kg, male): 7320 ng·h/mL
- Vd ([4]; CD-1, mouse, plasma, IV 10 mg/kg, male, read-out: Vss): 1.49 L/kg
- AUC(0-inf) ([4]; CD-1, mouse, plasma, IV 30 mg/kg, female): 20100 ng·h/mL
- Vd ([4]; CD-1, mouse, plasma, IV 30 mg/kg, female, read-out: Vss): 3 L/kg
- AUC(0-inf) ([4]; CD-1, mouse, plasma, IV 30 mg/kg, male): 22300 ng·h/mL
- Vd ([4]; CD-1, mouse, plasma, IV 30 mg/kg, male, read-out: Vss): 6.74 L/kg
- AUC(0-inf) ([4]; CD-1, mouse, plasma, IV 100 mg/kg, female): 43100 ng·h/mL
- Vd ([4]; CD-1, mouse, plasma, IV 100 mg/kg, female, read-out: Vss): 2.67 L/kg
- AUC(0-inf) ([4]; CD-1, mouse, plasma, IV 100 mg/kg, male): 49700 ng·h/mL
- Vd ([4]; CD-1, mouse, plasma, IV 100 mg/kg, male, read-out: Vss): 2.01 L/kg
- CLs ([4]; IV 10 mg/kg, female): 12.6 mL/min/kg
- CLs ([4]; IV 10 mg/kg, male): 23.4 mL/min/kg
- clearance ([4]; both sexes, CD-1, plasma, mouse, IV 100 mg/kg, range): 33.6 to 38.9 mL/min/kg
- clearance ([4]; both sexes, CD-1, plasma, mouse, IV 10 and 30 mg/kg, range): 12.6 to 25 mL/min/kg
- Vd ([4]; both sexes, CD-1, plasma, mouse, IV, range, read-out: Volume of distribution at steady state (Vss)): 1.49 to 6.74 L/kg
